# Read-outs that look alike come from different tables or passages of the source.
# Experiments:
# Type in all cases: in vivo
# [1] = test system: Setaria viridis (SETVI); experiment: Pre-emergence herbicidal action against SETVI
# Procedure, shortened: (§1)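 Read-out is visual percent damage relative to untreated pots, with 100% meaning dead plants and 0% meaning no difference, assessed roughly three weeks after treatment. Compounds were applied pre-emergence to the covering soil at up to 320 g/ha.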
# [2] = test system: Amaranthus retroflexus (AMARE); experiment: Pre-emergence herbicidal action against AMARE; details: visual scoring after about 3 weeks vs untreated controls
# Procedure, shortened: as §1
# [3] = test system: Avena fatua (AVEFA); experiment: Post-emergence herbicidal action against AVEFA; details: visual rating about 3 weeks after treatment
# Procedure, shortened: (§2)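 Post-emergence greenhouse spray, one-leaf stage, 600 l/ha water plus 0.5% additive; WP or EC formulations; application rates 320 g/ha or lower. Visual % damage vs untreated controls at ~3 weeks.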
# [4] = test system: Viola tricolor (VIOTR); experiment: Pre-emergence herbicidal action against VIOTR; details: 320 g/ha, Viola tricolor
# Procedure, shortened: as §1
# [5] = test system: Pharbitis purpurea (PHBPU); experiment: Pre-emergence herbicidal action against PHBPU; details: dosage 320 g/ha
# Procedure, shortened: as §1
# [6] = test system: Alopecurus myosuroides (ALOMY); experiment: Post-emergence herbicidal action against ALOMY; details: visual rating about 3 weeks after treatment vs untreated controls (100% = plants have died, 0% = like control plants)
# Procedure, shortened: as §2
# [7] = test system: Verconica persica (VERPE); experiment: Pre-emergence herbicidal action against VERPE
# Procedure, shortened: as §1
# [8] = test system: Amaranthus retroflexus (AMARE); experiment: Post-emergence herbicidal action against AMARE
# Procedure, shortened: as §2
# [9] = test system: Verconica persica (VERPE); experiment: Post-emergence herbicidal action against VERPE
# Procedure, shortened: as §2
# [10] = test system: Matricaria inodora (MATIN); experiment: Pre-emergence herbicidal action against MATIN; details: dosage 320 g/ha
# Procedure, shortened: as §1
# [11] = test system: Avena fatua (AVEFA); experiment: Pre-emergence herbicidal action against AVEFA; details: 320 g/ha, visual scoring after about 3 weeks vs untreated controls
# Procedure, shortened: as §1
# [12] = test system: Alopecurus myosuroides (ALOMY); experiment: Pre-emergence herbicidal action against ALOMY; details: scored visually after about 3 weeks, 100% = plants have died
# Procedure, shortened: as §1
# [13] = test system: Echinochloa crus-galli (ECHCG); experiment: Post-emergence herbicidal action against ECHCG
# Procedure, shortened: as §2
# [14] = test system: Oryza sativa (ORYSA); details: crop plant compatibility
# Procedure, shortened: (§3)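 Visual rating (% effect vs. untreated plants; 100% = plant death) made about 3 weeks after treatment. Plants had been sprayed at one-leaf stage, 2–3 weeks post-sowing, with aqueous WP/EC preparations containing 0.5% additive, 600 l/ha water volume; a, b, c mark dose levels.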
# [15] = test system: Zea mays (ZEAMX); details: 20 g/ha, ZEAMX, effect in comparison to untreated controls
# Procedure, shortened: as §3
# [16] = test system: Lolium rigidum (LOLRI); experiment: Pre-emergence herbicidal action against LOLRI; details: dosage 320 g/ha
# Procedure, shortened: as §1
# [17] = test system: Matricaria inodora (MATIN); experiment: Post-emergence herbicidal action against MATIN
# Protocol: Seeds of monocotyledonous and dicotyledonous weeds and crop plants are placed in sandy loam in plastic or organic planting pots, covered with soil and cultivated in a greenhouse under controlled growth conditions. 2 to 3 weeks after sowing, the test plants are treated at the one-leaf stage. The compounds of the invention, formulated in the form of wettable powders (WP) or as emulsion concentrates (EC), are then sprayed onto the green parts of the plants as aqueous suspension or emulsion with addition of 0.5% additive at a water application rate of 600 l/ha (converted). After the test plants have been kept in the greenhouse under optimum growth conditions for about 3 weeks, the activity of the preparations is rated visually in comparison to untreated controls. For example, 100% activity=the plants have died, 0% activity=like control plants.
# Tables B1 to B13 below show the effects of selected compounds of the general formula (I) according to Table 1 on various harmful plants and at an application rate corresponding to 320 g/ha or lower, which were obtained by the experimental procedure mentioned above. The appendices “a”, “b” and “c” give differentiation by dosage used with otherwise the same harmful plants tested.
# [18] = test system: Polygonum convolvulus (POLCO); experiment: Pre-emergence herbicidal action against POLCO
# Procedure, shortened: as §1
# [19] = test system: Echinochloa crus-galli (ECHCG); experiment: Pre-emergence herbicidal action against ECHCG; details: dosage 320 g/ha
# Procedure, shortened: as §1
# [20] = test system: Viola tricolor (VIOTR); experiment: Post-emergence herbicidal action against VIOTR; details: 320 g/ha
# Procedure, shortened: as §2
# [21] = test system: Setaria viridis (SETVI); experiment: Post-emergence herbicidal action against SETVI
# Procedure, shortened: as §2
# [22] = test system: Pharbitis purpurea (PHBPU); experiment: Post-emergence herbicidal action against PHBPU
# Procedure, shortened: as §2
# [23] = test system: Lolium rigidum (LOLRI); experiment: Post-emergence herbicidal action against LOLRI; details: dosage 320 g/ha
# Procedure, shortened: as §2
# [24] = 80 g/ha, visual rating about 3 weeks after treatment vs untreated controls (100% = plants have died, 0% = like control plants)
Compound,Pre-emergence action against SETVI in % ([1]; dosage 320 g/ha),Pre-emergence action against AMARE in % ([2]; 80 g/ha),Pre-emergence action against AMARE in % ([2]; 320 g/ha),Pre-emergence action against VIOTR in % [4],Pre-emergence action against PHBPU in % [5],Post-emergence action against ALOMY in % ([6]; 80 g/ha),Pre-emergence action against VERPE in % ([7]; dosage 320 g/ha),"Post-emergence action against AMARE in % [8, 24]",Post-emergence action against VERPE in % ([9]; dosage 80 g/ha),Pre-emergence action against MATIN in % [10],Pre-emergence action against AVEFA in % [11],Pre-emergence action against ALOMY ([12]; 80 g/ha),Pre-emergence action against ALOMY ([12]; 320 g/ha),Pre-emergence action against LOLRI in % [16],Post-emergence action against MATIN in % ([17]; dosage 80 g/ha),Pre-emergence action against POLCO in % ([18]; dosage 320 g/ha),Pre-emergence action against ECHCG in % [19],further results
O=C(O)COc1nn(-c2ccccn2)c(-c2ccc(F)nc2)c1Cl [Example I-98],100%,100%,100%,100%,90%,90%,100%,80%,80%,90%,80%,90%,100%,100%,80%,90%,100%,"Post-emergence action against AVEFA in % ([3]; 80 g/ha): 80%; Post-emergence action against ECHCG in % ([13]; dosage 80 g/ha): 80%; Post-emergence action against ORYSA in % ([14]; 20 g/ha, effect vs untreated controls): 10%; Post-emergence action against ZEAMX in % (crop plant compatibility) [15]: 10%"
CS(=O)(=O)CCOC(=O)COc1nn(-c2ccccn2)c(-c2ccc(F)nc2)c1Br [Example I-313],100%,90%,100%,90%,80%,90%,90%,80%,90%,90%,90%,90%,100%,100%,80%,80%,100%,"Pre-emergence action against SETVI in % ([1]; dosage 80 g/ha): 100%; Post-emergence action against AVEFA in % ([3]; 320 g/ha): 80%; Post-emergence action against VIOTR in % [20]: 80%; Post-emergence action against ALOMY in % ([6]; 320 g/ha): 90%; Post-emergence action against SETVI in % ([21]; dosage 80 g/ha): 90%; Post-emergence action against SETVI in % ([21]; dosage 320 g/ha): 90%; Pre-emergence action against VERPE in % ([7]; dosage 80 g/ha): 80%; Post-emergence action against AMARE in % ([8]; 320 g/ha, visual rating about 3 weeks after treatment): 90%; Post-emergence action against VERPE in % ([9]; 320 g/ha, VERPE): 90%; Post-emergence action against ECHCG in % ([13]; dosage 320 g/ha): 90%; Post-emergence action against ORYSA in % ([14]; 80 g/ha, effect in comparison to untreated controls): 10%; Post-emergence action against MATIN in % ([17]; dosage 320 g/ha): 90%; Post-emergence action against PHBPU in % ([22]; dosage 80 g/ha): 90%; Post-emergence action against PHBPU in % ([22]; dosage 320 g/ha): 90%; Pre-emergence action against POLCO in % ([18]; dosage 80 g/ha): 80%; Post-emergence action against LOLRI in % [23]: 90%"

# Reference: patent publication US20240041042A1, “1-(PYRIDYL)-5-AZINYLPYRAZOLE DERIVATIVES, AND THEIR USE FOR CONTROL OF UNDESIRED PLANT GROWTH” (Bayer Aktiengesellschaft, priority 2020, published 2024)
